Measured values published in paper PMC12085399, “Quantitative in vitro-to-in vivo extrapolation of human adrenergic and trace amine-associated receptor 1 potencies of pre-workout supplement ingredients using physiologically based kinetic modelling-based reverse dosimetry” (Archives of Toxicology, 2025).

Assays:
[1] = test system: ADRβ2; test: PBK modelling-based reverse dosimetry of in vitro EC50 to ED50, ADRβ2; conditions: predicted human oral ED50 from in vitro EC50 (Pinckaers et al. [2024]) and modelled Cmax plasma venous
Text: The in vitro effect concentrations (EC50), for activation of the α1A, α1B, α1D, α2A, α2B, β1 and β2 ADR activation and the activation of TAAR1, were obtained from our previous study (Pinckaers et al. [2024]).

[2] = test system: Caco-2 cells; test: in vitro; conditions: scaled from corrected Caco-2 Papp A-B, human
Procedure: (§1) Caco-2 cells (ATCC, Manassas, VA, USA; passage 30–44) were cultured in DMEM (Gibco, New York, USA) containing 4.5 g/L d-glucose, 4 mM L-glutamine and supplemented with 10% FBS (Gibco, Grand Island, NY, USA), 1% minimal essential medium non-essential amino acids (Gibco, Paisley, UK), 100 units/mL penicillin and 100 µg/mL streptomycin (Gibco, Grand Island, NY, USA). Cells were seeded at a density of 4.0 × 10^4 cells/cm^2 on polyester transwell insert membranes (12 mm insert, 0.4 µm pore size; Corning incorporated, Kennebunk, ME, USA). Cells were maintained in a humidified incubator with 5% CO2 at 37 °C for 21 or 22 days in 0.5 mL and 1.5 mL medium in the apical and basolateral compartments, respectively. The medium was refreshed every two or three days and always one day before the permeability assay.
(§2) On the day of the experiment, cells were washed twice with HBSS without phenol red (pH 7.4; Sigma-Aldrich, Steinheim, Germany) supplemented with 0.35 g/L sodium bicarbonate and 25 mM HEPES and they were equilibrated in this supplemented HBSS for 15 min in a humidified incubator with 5% CO2 at 37 °C. […] These stocks were diluted to a final concentration of 10 µM in pre-warmed supplemented HBSS (final DMSO level = 0.1%). After 15 min, the transepithelial electrical resistance (TEER) was measured with an Epithelial Voltohmmeter (World Precision Instruments, Sarasota, USA). Compound transport was studied in two directions: from the apical to the basolateral compartment (A-B) and from the basolateral to the apical compartment (B-A). For A-B experiments, 450 µL of the compound (10 µM) was added to the apical side and 1200 µL supplemented HBSS was added to the basolateral side. A sample of 50 µL was removed immediately from the apical compartment at time point zero. After 15 and 30 min, samples were taken from the basolateral compartment. Cells were kept in the incubator during the experiment. After 60 min, medium from both compartments was sampled, cells were washed twice with supplemented HBSS and were maintained in the incubator. After 15 min, the TEER was measured again to check for epithelial barrier damage due to compound exposure. After this, cells were lysed in RIPA buffer (Thermo Scientific, Rockford, IL, USA). For B-A experiments, 400 µL of supplemented HBSS was added to the apical side and 1250 µL of the compound (10 µM) was added to the basolateral side. A sample of 50 µL was removed immediately from the basolateral compartment at time point zero. After 15 and 30 min, samples were taken from the apical compartment. After 60 min, samples were taken similarly as in A-B experiments. The sampled medium and cell lysates were stored at −20 °C till the day of the liquid chromatography–mass spectrometry (LC–MS/MS) analysis. All experiments were run in duplicate. The compounds were quantified with LC–MS/MS as described in Sect. "LC–MS/MS analysis".
(§3) Before chemical analysis, cell lysates were two times diluted in ice-cold methanol and centrifuged at 15,000 rpm at 4 °C. The supernatant was then injected into the LC–MS/MS system. Sampled buffer from donor compartments was diluted 40 times in buffer and samples from the receiver compartment were analysed undiluted. Standards were prepared in the same assay buffer to quantify the amount of compound in medium samples. For quantification of compounds in cell lysates, standards were prepared in a mixture of 50% RIPA buffer and 50% methanol.
(§4) All data are presented as mean ± SD.
(§5) For the < Tsi > a value of 3.32 h was used (Grandoni et al. [2019]).

[3] = in vitro; conditions: human; for Papp B→A at 60 min, 10 µM / efflux ratio at 60 min, 10 µM: Caco-2, pH 7.4; for recovery at 60 min, 10 µM: after 60 min, mean ± SD
Procedure: as §1, §2, §3, §4, §5

[4] = human, t = 0.70 h, escalating intravenous infusion 0.5, 1, 2, 4 µg/kg bw/min, 3 min each; ref Feng et al. [2012]; cited from earlier work
[5] = test system: ADRβ1; parameters: method as in Pinckaers et al. [2024]; conditions: in vitro ADRβ1 activation assays, Fig. 6E; ref Pinckaers et al. [2024]; cited from earlier work
[6] = Caco-2, pH 7.4, Papp A-B corrected, corrected for the difference between Papp A-B of metoprolol in this study and in literature
[7] = Caco-2, pH 7.4, Papp A-B, Caco-2, apical to basolateral, 10 µM, HBSS pH 7.4, mean ± SD, duplicate
[8] = Caco-2, pH 7.4, Recovery (A-B), Caco-2, A-B experiments
[9] = Caco-2, pH 7.4, Recovery (B-A), Caco-2, B-A experiments

SMILES: CN(C)CCc1ccccc1 [Dimethylphenethylamine, N,N-dimethylphenethylamine]
- ADRβ2 ED50 [1]: – (compounds with a dash (-) did not activate the receptors in vitro at concentrations ≤ 300 µM)
- fa (fraction absorbed) [2]: 1.00
- ka (absorption rate constant) [2]: 3.66 h⁻¹
- Papp B→A at 60 min, 10 µM [3]: 13.1 ± 0.51 ×10⁻⁶ cm/s
- efflux ratio at 60 min, 10 µM [3]: 0.891
- Papp A→B at 60 min, 10 µM [3, 6]: 53.5 ×10⁻⁶ cm/s
- Papp A→B at 60 min, 10 µM [3, 7]: 14.7 ± 0.244 ×10⁻⁶ cm/s
- recovery at 60 min, 10 µM [3, 8]: 76.7 ± 0.06%
- recovery at 60 min, 10 µM [3, 9]: 93.3 ± 4.81%

SMILES: CNCC(O)c1ccccc1 (stereo not shown) [Halostachine, halostachine]
- ADRβ2 ED50 [1]: – (compounds with a dash (-) did not activate the receptors in vitro at concentrations ≤ 300 µM)
- fa (fraction absorbed) [2]: 1.00
- ka (absorption rate constant) [2]: 3.46 h⁻¹
- Papp B→A at 60 min, 10 µM [3]: 10.3 ± 0.649 ×10⁻⁶ cm/s
- efflux ratio at 60 min, 10 µM [3]: 0.786
- Papp A→B at 60 min, 10 µM [3, 6]: 47.8 ×10⁻⁶ cm/s
- Papp A→B at 60 min, 10 µM [3, 7]: 13.1 ± 0.144 ×10⁻⁶ cm/s
- recovery at 60 min, 10 µM [3, 8]: 84 ± 3.18%
- recovery at 60 min, 10 µM [3, 9]: 93.9 ± 0.0289%

SMILES: Oc1ccc(CC2NCCc3cc(O)c(O)cc32)cc1 (stereo not shown) [Higenamine, higenamine]
- observed average plasma concentration [4]: 0.5 ng/mL
- in vitro potency, times more potent than isopropyloctopamine [5]: 3.5 times
- ADRβ2 ED50 [1]: 2.92 mg/kg bw
- fa (fraction absorbed) [2]: 0.860
- ka (absorption rate constant) [2]: 0.246 h⁻¹
- Papp B→A at 60 min, 10 µM [3]: 0.0612 ± 0.00186 ×10⁻⁶ cm/s
- efflux ratio at 60 min, 10 µM [3]: 1
- Papp A→B at 60 min, 10 µM [3, 6]: 0.223 ×10⁻⁶ cm/s
- Papp A→B at 60 min, 10 µM [3, 7]: 0.061 ± 0.0351 ×10⁻⁶ cm/s
- recovery at 60 min, 10 µM [3, 8]: 104 ± 0.35%
- recovery at 60 min, 10 µM [3, 9]: 105 ± 1.06%

SMILES: CN(C)CCc1ccc(O)cc1 [Hordenine, hordenine]
- ADRβ2 ED50 [1]: – (compounds with a dash (-) did not activate the receptors in vitro at concentrations ≤ 300 µM)
- fa (fraction absorbed) [2]: 1.00
- ka (absorption rate constant) [2]: 3.46 h⁻¹
- Papp B→A at 60 min, 10 µM [3]: 11.2 ± 0.22 ×10⁻⁶ cm/s
- efflux ratio at 60 min, 10 µM [3]: 0.862
- Papp A→B at 60 min, 10 µM [3, 6]: 47.3 ×10⁻⁶ cm/s
- Papp A→B at 60 min, 10 µM [3, 7]: 13 ± 0.192 ×10⁻⁶ cm/s
- recovery at 60 min, 10 µM [3, 8]: 96.7 ± 1.27%
- recovery at 60 min, 10 µM [3, 9]: 107 ± 0.0262%

SMILES: CC(C)NCC(O)c1ccc(O)cc1 (stereo not shown) [Isopropyloctopamine, isopropyloctopamine]
- ADRβ2 ED50 [1]: – (compounds with a dash (-) did not activate the receptors in vitro at concentrations ≤ 300 µM)
- fa (fraction absorbed) [2]: 0.994
- ka (absorption rate constant) [2]: 0.818 h⁻¹
- Papp B→A at 60 min, 10 µM [3]: 0.652 ± 0.0444 ×10⁻⁶ cm/s
- Papp A→B at 60 min, 10 µM [3, 6]: 2.56 ×10⁻⁶ cm/s
- Papp A→B at 60 min, 10 µM [3, 7]: 0.703 ± 0.041 ×10⁻⁶ cm/s
- recovery at 60 min, 10 µM [3, 8]: 79.8 ± 2.19%
- recovery at 60 min, 10 µM [3, 9]: 76.5 ± 1.27%
